Test results as given in patent USRE38460E1 (priority 1994, dated 2004).
pIC50: −log10 of the molar value. Like-named read-outs stand apart in the source and are kept apart here.

Columns and labels:
[1] = target: T1, butyrylcholinesterase (BuChE) (Rattus norvegicus, UniProt Q9JKC1); assay: In-vitro anticholinesterase effect, colorimetric method (Ellman), BuChE from rat's serum; type: biochemical
T1 construct: from tissue; host or cells: rat serum
Experimental: (§1) In the present invention a calorimetric method reported by Ellman was used to determine the effect of inhibition of the pharmaceutical on enzyme activity. The total volume of the solution of the enzyme activity reaction was 4 ml, which contained 0.3 mmol/L of acetylcholin iodide (acetylcholinesterase substrate), or 0.4 mmol/L of butyrylcholin iodide (butyrylcholinesterase substrate), 1 ml of the buffer solution of 25 mmol/L of phosphate of pH 7.4, and water to make up to 4 ml (including the amount of the enzyme solution and the testing reagent added afterwards). After the solution was kept at 37° C. for 5 minutes, 0.1-0.2 ml of enzyme solution (red cell membrane or serum of rat) was added, or 0.1-0.3 ml of the testing reagent was added at the same time. The solution was kept at the same temperature for another 8 minutes. Then 1 ml of 3% of sodium lauryl sulphate was added to terminate the reaction. Finally 1 ml of 0.2% 5,5-dithio-2,2′-nitro-benzoic acid solution was added for developing.
(§2) AChE taken from rat's red cell membrane. BuChE taken from rat's serum.
(§3) AChE taken from homogenate of rat's cortex. BuChE taken from rat's serum.

[2] = target: T2, acetylcholinesterase (AChE) (Rattus norvegicus, UniProt P37136); assay: biochemical; type: biochemical
T2 construct: from tissue; host or cells: rat red cell membrane
Experimental: as §1, §2
T2 sequence (P37136 other isoform, or with tags, fused parts or gaps): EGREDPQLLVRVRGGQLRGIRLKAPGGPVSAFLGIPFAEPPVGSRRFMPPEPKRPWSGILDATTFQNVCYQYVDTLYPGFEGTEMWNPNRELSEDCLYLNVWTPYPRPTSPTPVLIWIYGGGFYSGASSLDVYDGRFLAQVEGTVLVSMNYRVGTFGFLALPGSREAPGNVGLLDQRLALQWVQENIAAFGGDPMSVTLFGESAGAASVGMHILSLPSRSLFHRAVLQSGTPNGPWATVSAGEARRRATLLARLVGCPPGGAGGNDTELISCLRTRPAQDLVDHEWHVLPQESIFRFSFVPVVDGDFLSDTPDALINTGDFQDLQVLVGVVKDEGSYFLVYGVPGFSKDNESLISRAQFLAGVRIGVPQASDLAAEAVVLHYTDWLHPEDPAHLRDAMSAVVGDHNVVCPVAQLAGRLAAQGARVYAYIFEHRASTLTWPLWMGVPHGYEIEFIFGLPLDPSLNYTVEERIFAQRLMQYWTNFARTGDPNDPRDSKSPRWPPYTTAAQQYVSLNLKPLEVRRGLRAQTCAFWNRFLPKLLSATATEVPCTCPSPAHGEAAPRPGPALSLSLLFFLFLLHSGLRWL

AChE = target: T3, AChE (Rattus norvegicus, UniProt P37136); assay: biochemical
T3 construct: 0.1-0.2 ml of enzyme solution (red cell membrane or serum of rat) was added; from tissue; host or cells: rat tissue
T3 sequence (P37136 32-614): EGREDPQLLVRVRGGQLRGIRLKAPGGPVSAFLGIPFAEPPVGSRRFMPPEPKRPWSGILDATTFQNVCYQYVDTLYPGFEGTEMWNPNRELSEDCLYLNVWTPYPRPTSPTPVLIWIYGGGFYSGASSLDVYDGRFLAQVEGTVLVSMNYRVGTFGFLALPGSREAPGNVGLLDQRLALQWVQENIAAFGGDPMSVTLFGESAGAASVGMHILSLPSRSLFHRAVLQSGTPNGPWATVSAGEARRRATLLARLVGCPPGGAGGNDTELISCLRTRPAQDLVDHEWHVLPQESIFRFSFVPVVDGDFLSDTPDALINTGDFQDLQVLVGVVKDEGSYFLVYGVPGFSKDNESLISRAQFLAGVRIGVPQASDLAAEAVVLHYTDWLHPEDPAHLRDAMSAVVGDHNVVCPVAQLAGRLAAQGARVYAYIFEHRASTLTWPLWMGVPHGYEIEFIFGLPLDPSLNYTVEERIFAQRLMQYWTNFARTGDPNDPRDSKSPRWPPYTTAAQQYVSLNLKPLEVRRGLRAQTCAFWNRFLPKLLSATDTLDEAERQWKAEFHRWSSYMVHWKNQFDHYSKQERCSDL
Experimental: as §1

BuChE = target: T4, BuChE (Rattus norvegicus, UniProt Q9JKC1); assay: In-vitro anticholinesterase effect (Table 6), BuChE; type: biochemical; settings: for inhibition at 10 µM: read-out: inhibition activity BuChE at 10(μM); for inhibition activity BuChE at 10(μM): Table 6
T4 construct: from tissue; host or cells: rat serum
T4 sequence (Q9JKC1 24-597): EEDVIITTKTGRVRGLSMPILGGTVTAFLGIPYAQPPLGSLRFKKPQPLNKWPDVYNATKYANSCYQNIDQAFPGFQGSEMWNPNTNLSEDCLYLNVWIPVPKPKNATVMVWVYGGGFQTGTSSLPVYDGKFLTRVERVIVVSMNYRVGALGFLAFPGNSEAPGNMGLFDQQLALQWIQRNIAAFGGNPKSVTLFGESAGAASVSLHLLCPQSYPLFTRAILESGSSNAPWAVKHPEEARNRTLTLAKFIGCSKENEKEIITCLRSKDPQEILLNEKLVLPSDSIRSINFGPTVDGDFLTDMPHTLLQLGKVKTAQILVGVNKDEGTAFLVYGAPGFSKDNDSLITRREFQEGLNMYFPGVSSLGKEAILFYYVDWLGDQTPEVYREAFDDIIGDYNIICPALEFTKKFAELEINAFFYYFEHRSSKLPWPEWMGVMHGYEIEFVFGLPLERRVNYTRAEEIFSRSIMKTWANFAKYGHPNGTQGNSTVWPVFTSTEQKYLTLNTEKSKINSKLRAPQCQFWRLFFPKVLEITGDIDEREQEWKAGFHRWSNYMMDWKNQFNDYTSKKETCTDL
Experimental: as §1

[3] = target: T5, acetylcholinesterase (AChE) (Rattus norvegicus, UniProt P37136); assay: biochemical; type: biochemical; settings: for IC50 ratio BuChE/AChE: cortex AChE, serum BuChE
T5 construct: from tissue; host or cells: homogenate of rat cortex
T5 sequence (P37136 32-614): T3 sequence (P37136 32-614)
Experimental: as §1, §3

[4] = Critical toxicity on mice (Bliss method); type: in vivo; settings: mouse, in vivo, po, mice, p.o., Bliss method, mortality within 7 days
Experimental: Test of each pharmaceutical was carried out using 4-5 dosage group.
Mortality within 7 days was observed.

[5] = test system: memory impairment caused by scopolamine; assay: 8-arm maze spatial distinction operation of rat, memory impairment caused by scopolamine; type: in vivo; settings: rats, 8-arm maze; scopolamine + huperzine A 0.15 + 0.25 mg/kg ip + po
[6] = read-out: concentration for inhibition of 50% of enzyme activity (IC50) butyrylcholinesterase (BuChE), Table 1, BuChE taken from rat's serum
[7] = Table 2, AChE taken from homogenate of rat's cortex
[8] = Table 6, read-out: inhibition activity AChE IC50
[9] = read-out: concentration for inhibition of 50% of enzyme activity (IC50) acetylcholinesterase (AChE)
[10] = Table 1, AChE taken from rat's red cell membrane
[11] = read-out: inhibition activity AChE IC50
[12] = read-out: concentration for inhibition of 50% of enzyme activity (IC50) butyrylcholinesterase (BuChE), Table 2, BuChE taken from rat's serum
[13] = read-out: concentration for inhibition of 50% of enzyme activity (IC50) acetylcholinesterase (AChE), Table 2, AChE taken from homogenate of rat's cortex

T1 sequence (Q9JKC1 24-597): as above

In the case of `CC=C1C2C=C(C)CC1(NC(=O)C1=CN(C)CC=C1)c1ccc(=O)[nH]c1C2` (stereo not drawn) [derivative No. 6], the pIC50 [1, 6] was less than 3.51 and the pIC50 ([2]; read-out: concentration for inhibition of 50% of enzyme activity (IC50) acetylcholinesterase (AChE), Table 1, AChE taken from rat's red cell membrane) was less than 4.91.

In the case of `CC=C1C2C=C(C)CC1(N=Cc1ccc(O)cc1O)c1ccc(=O)[nH]c1C2` (stereo not drawn) [derivative No. 23], the pIC50 [1] was 3.70, the inhibition at 1 µM (AChE; Table 6) was 34.4% and the inhibition at 10 µM (BuChE) was 0%. For the same compound, the pIC50 [3, 7] was 6.60 and the “IC50 ratio BuChE/AChE” value ([3]; Table 2) was 794.2.

Compound `CC=C1C2C=C(C)CC1(N=CC=Cc1ccccc1)c1ccc(=O)[nH]c1C2` (stereo not drawn) [derivative No. 27] has a pIC50 [1] of 4.00, a BuChE/AChE (AChE; Table 6) greater than 500 and an inhibition at 1 µM (AChE; Table 6) of 84%. For the same compound, the pIC50 (AChE; [8]) was 6.96, the inhibition at 10 µM (BuChE) was 3.3% and the pIC50 [3] was 6.90. For the same compound, the “IC50 ratio BuChE/AChE” value ([3]; Table 2) was 794.3.

In the case of `CC=C1C2C=C(C)CC1(N=Cc1ccc(O)c(O)c1O)c1ccc(=O)[nH]c1C2` (stereo not drawn) [derivative No. 25], the pIC50 [1] was 3.60, the inhibition at 1 µM (AChE; Table 6) was 62% and the inhibition at 10 µM (BuChE) was 0%. The pIC50 [3, 7] was 6.80 and the “IC50 ratio BuChE/AChE” value ([3]; Table 2) was 1584.9.

For `CC=C1C2C=C(C)CC1(N=Cc1cccc(OC)c1O)c1ccc(=O)[nH]c1C2` (stereo not drawn) [derivative No. 26], the BuChE/AChE (AChE; Table 6) was greater than 300, the inhibition at 1 µM (AChE; Table 6) was 79.7% and the pIC50 (AChE; [8]) was 6.74. The inhibition at 10 µM (BuChE) was 1.1%.

Compound `CC=C1C2C=C(C)CC1(NC(=O)c1ccccc1)c1ccc(=O)[nH]c1C2` (stereo not drawn) [derivative No. 11] has a pIC50 [1, 6] of 3.44 and a pIC50 [2, 9] of less than 4.84.

Compound `CC=C1C2C=C(C)CC1(NC(=O)c1cccnc1)c1ccc(=O)[nH]c1C2` (stereo not drawn) [derivative No. 4] has a pIC50 [1] of 4.23 and a pIC50 [2, 10] of less than 4.89.

`CC=C1C2C=C(C)CC1(N=Cc1cccc(O)c1O)c1ccc(=O)[nH]c1C2` (stereo not drawn) [derivative No. 24] showed an inhibition at 1 µM (AChE; Table 6) of 78.3%, a pIC50 (AChE; [8]) of 6.55 and an inhibition at 10 µM (BuChE) of 0%. For the same compound, the pIC50 [3, 7] was 7.00.

`CC=C1C2C=C(C)CC1(NC(=O)c1cccnc1)c1ccc(=O)n(C(=O)c3cccnc3)c1C2` (stereo not drawn) [derivative No. 5] showed a pIC50 [1] of less than 3.56 and a pIC50 [2, 10] of less than 4.96.

With `CC=C1C2C=C(C)CC1(NC(=O)Cc1ccccc1)c1ccc(=O)[nH]c1C2` (stereo not drawn) [derivative No. 2] the pIC50 [1] was less than 3.46 and the pIC50 [2, 10] was 5.04.

For `CC=C1C2C=C(C)CC1(N=Cc1cccnc1)c1ccc(=O)[nH]c1C2` (stereo not drawn) [derivative No. 44], the BuChE/AChE (AChE; Table 6) was greater than 500, the inhibition at 1 µM (AChE; Table 6) was 85.6% and the pIC50 (AChE; [8]) was 6.96. The inhibition at 10 µM (BuChE) was 1.8%.

In the case of `CC=C1C2C=C(C)CC1(NC(=O)/C=C/CC(=O)O)c1ccc(=O)[nH]c1C2` (stereo not drawn) [derivative No. 16], the BuChE/AChE (AChE) was greater than 200, the “inhibition activity AChE at 1(μM)” value (AChE) was 80.7 and the pIC50 (AChE; [11]) was 6.68. The “inhibition activity BuChE at 10(μM)” value (BuChE) was 1.8.

With `CC=C1C2C=C(C)CC1(N=Cc1cc(OC)c(OC)c(OC)c1)c1ccc(=O)[nH]c1C2` (stereo not drawn) [derivative No. 21] the pIC50 [1] was 3.80, the inhibition at 1 µM (AChE; Table 6) was 84.9% and the inhibition at 10 µM (BuChE) was 0%. For the same compound, the pIC50 [3, 7] was 6.85.

In the case of `CNC(=O)Oc1ccc2c(c1)[C@]1(C)CCN(C)[C@@H]1N2C` [Physostigmine, reference compound], the pIC50 [1] was 5.90.

With `CC=C1C2C=C(C)CC1(NC(=O)CCC(=O)O)c1ccc(=O)[nH]c1C2` (stereo not drawn) [derivative No. 1] the pIC50 [1, 6] was 3.42, the pIC50 [1, 12] was 3.42 and the “inhibition effect on butyrylcholinesterase (pseudo enzyme) compared with huperzine A” value ([1]; see Tables 1, 2 and 6) was “weaker inhibition effect”. For the same compound, the “IC50 ratio BuChE/AChE” value [2] was 1092.5, the “inhibition effect on acetylcholinesterase (in words)” value [2] was “remarkable inhibition effect” and the “inhibition effect on acetylcholinesterase compared with huperzine A” value [2] was “slightly weaker”. The “inhibition effect on acetylcholinesterase compared with physostigmine and galanthamine” value [2] was “apparently stronger”, the “selective inhibition effect on acetylcholinesterase compared with huperzine A” value [2] was “greater selective inhibition effect” and the pIC50 [2, 9] was 6.46. For the same compound, the “IC50 ratio BuChE/AChE” value ([3]; Table 2) was 1094.1 and the pIC50 [3, 13] was 6.46.

`CC=C1C2C=C(C)CC1(N=Cc1ccccc1O)c1ccc(=O)[nH]c1C2` (stereo not drawn) [derivative No. 20] gave a pIC50 [1] of 3.90, a pIC50 (AChE) of 7.03 and a BuChE/AChE (AChE; Table 6) greater than 500. For the same compound, the inhibition at 1 µM (AChE; Table 6) was 83.7%, the inhibition at 10 µM (BuChE) was 0% and the pIC50 [3, 7] was 6.75. For the same compound, the “IC50 ratio BuChE/AChE” value ([3]; Table 2) was 708.1.

Compound `CC=C1C2C=C(C)CC1(N=Cc1ccc(OC)c(OC)c1O)c1ccc(=O)[nH]c1C2` (stereo not drawn) [derivative No. 22] has a pIC50 [1] of 3.90, an inhibition at 1 µM (AChE; Table 6) of 68.7% and an inhibition at 10 µM (BuChE) of 0%. The pIC50 [3, 7] was 6.90 and the “IC50 ratio BuChE/AChE” value ([3]; Table 2) was 1000.0.

In the case of `CC=C1C2C=C(C)CC1(NC(=O)c1ccccc1C(=O)O)c1ccc(=O)[nH]c1C2` (stereo not drawn) [derivative No. 15], the pIC50 [1, 12] was 3.30, the “inhibition activity AChE at 1(μM)” value (AChE) was 60.8 and the “inhibition activity BuChE at 10(μM)” value (BuChE) was 0. For the same compound, the “IC50 ratio BuChE/AChE” value ([3]; Table 2) was 795.6 and the pIC50 [3, 13] was 6.20.

In the case of `CC=C1C2C=C(C)CC1(NC(=O)c1ccccn1)c1ccc(=O)[nH]c1C2` (stereo not drawn) [derivative No. 12], the pIC50 [1, 12] was 3.60, the “IC50 ratio BuChE/AChE” value ([3]; Table 2) was 1995.2 and the pIC50 [3, 13] was 6.90.

In the case of `C/C=C1\C2C=C(C)C[C@]1(N)c1ccc(=O)[nH]c1C2` [huperzine A, (5R, 9R, 11E)-5-amino-11-ethylidene-5,6,9,10-tetrahydro-7-methyl-5,9-methylene cycloocta [b] pyridyl-2(1H)-one, reference compound], the LD50 at 7 days ([4]; first of two columns headed LD50, read-out: LD50 (first column) (95% confidence limit)) was 3.1 mg/kg, the LD50 at 7 days ([4]; second of two columns headed LD50, read-out: LD50 (second column) (95% confidence limit)) was 4.6 mg/kg and the “No. of mistakes in operation before reaching the standard, reference memory (X + SEM)” value [5] was 0.57. The “No. of mistakes in operation before reaching the standard, working memory (X + SEM)” value [5] was 0.86.

`COc1cc2c(cc1OC)C(=O)C(CC1CCN(Cc3ccccc3)CC1)C2` (stereo not drawn) [E-2020, reference compound] showed an inhibition at 10 µM (BuChE) of 2.9%.

For `CC=C1C2C=C(C)CC1(NC(=O)c1ccncc1)c1ccc(=O)[nH]c1C2` (stereo not drawn) [derivative No. 14], the BuChE/AChE (AChE) was greater than 100, the “inhibition activity AChE at 1(μM)” value (AChE) was 76.4 and the pIC50 (AChE; [11]) was 6.44. The “inhibition activity BuChE at 10(μM)” value (BuChE) was 2.5.

Compound `CC=C1C2C=C(C)CC1(NC(=O)C(C)C)c1ccc(=O)[nH]c1C2` (stereo not drawn) [derivative No. 10] has a pIC50 [1, 6] of 3.96 and a pIC50 [2, 9] of less than 4.80.
